Measured values as given in publication PMC10035387 (Cancer Research Communications, 2022).
Read-outs that look alike come from different tables or passages of the source.

Key:
[1] = tested on: cytochrome P450 (CYP) 2C8 and CYP3A4; set-up: method as in earlier work; details: cited from earlier work
Panc265 model = details: cited from earlier work
[2] = tested on: metastatic pancreatic cancer; details: cited from earlier work; for Median OS: P < 0.001; for Efficacy in randomized clinical trials: patients with PDAC
phospho-Rb (pRb) = experiment: pRb IHC in serial paired skin biopsy specimens; format: in vivo, human; details: skin biopsies
[3] = Phase Ib study: adverse events, dose-limiting toxicities, MTD
Experimental: The criteria for dose escalation were based on a modified toxicity probability method ([20]), using a statistical probability algorithm calculated with all patients treated at the same dose level. […] The study was conducted in accordance with legal and regulatory requirements and the Declaration of Helsinki. Prior to participant enrollment, the study was approved by the Institutional Review Board/Ethics Committee at each site at which it was conducted. Patients provided written informed consent before any study procedures were performed.

[4] = tested on: PDAC cell lines that retain RB1 expression; set-up: method as in PMID 29080858; details: cited from earlier work
[5] = Phase Ib study: plasma pharmacokinetics; details: steady state, overall population
Source text: (§1) Other outcomes included safety, pharmacokinetics, pharmacodynamics, tissue/blood biomarkers, objective tumor response, progression-free survival (PFS), and OS assessments.

[6] = human, in vivo
Source text: as §1

[7] = cited from earlier work
Ki67 = Ki67 IHC in serial paired skin biopsy specimens; format: in vivo, human; details: skin biopsies
[8] = after 2 weeks of palbociclib treatment, first-line MTD group
[9] = after a further 2 weeks of palbociclib treatment
[10] = after the 1-week palbociclib break, before cycle 2
[11] = PALOMA-1, patients with breast cancer
[12] = PALOMA-2, patients with breast cancer

CC(=O)O[C@H]1C(=O)[C@@]2(C)[C@H]([C@H](OC(=O)c3ccccc3)[C@]3(O)C[C@H](OC(=O)[C@H](O)[C@@H](NC(=O)c4ccccc4)c4ccccc4)C(C)=C1C3(C)C)[C@]1(OC(C)=O)CO[C@@H]1C[C@@H]2O [Paclitaxel]
Metabolizing enzymes [1]: metabolized primarily by cytochrome P450 (CYP) 2C8 and CYP3A4

CCc1cnn2c(NCc3ccc[n+]([O-])c3)cc(N3CCCC[C@H]3CCO)nc12 [dinaciclib]
Sensitivity of Panc265 model (Panc265 model): sensitive

Nc1ccn([C@@H]2O[C@H](CO)[C@@H](O)C2(F)F)c(=O)n1 [gemcitabine]
Median OS ([2]; FOLFIRINOX versus gemcitabine): 6.8 months | Median OS ([2]; GA versus gemcitabine alone, metastatic pancreatic cancer): 6.7 months

CC(=O)c1c(C)c2cnc(Nc3ccc(N4CCNCC4)cn3)nc2n(C2CCCC2)c1=O [palbociclib]
pRb level (phospho-Rb (pRb); [8]): decreased | pRb level (phospho-Rb (pRb); [9]): decreased again to below baseline | pRb level (phospho-Rb (pRb); [10]): rebounded to baseline or higher levels | Permanent discontinuation of palbociclib due to bacterial gastritis ([3]; all patients): 1.3% | Permanent discontinuation of palbociclib due to infection ([3]; all patients): 1.3% | Permanent discontinuation of palbociclib due to sepsis ([3]; all patients): 1.3% | MTD of palbociclib ([3]; for 21 of every 28 days, with nab-paclitaxel): 100 mg | Effect on PDAC cell lines [4]: induces cell-cycle arrest and apoptosis | Dose-normalized geometric mean AUCτ [5]: 1,569 ng·hour/mL | Dose-normalized geometric mean Cmax [5]: 90.44 ng/mL | CL/F, geometric mean [6]: 79.95 L/h | CL/F, median [6]: 74.10 L/h | Ctrough, geometric mean [6]: 34.89 ng/mL | Ctrough, median [6]: 34.60 ng/mL | tmax, median [6]: 4.17 h | AUCτ [7, 11]: 1,933 ng·hour/mL | Cmax [7, 11]: 108 ng/mL | AUCτ [7, 12]: 1,992 ng·hour/mL | Cmax [7, 12]: 110 ng/mL | Ki67 level (Ki67; [8]): decreased | Ki67 level (Ki67; [9]): decreased again to below baseline | Ki67 level (Ki67; [10]): rebounded to baseline or higher levels | Clinical activity ([2]; CDKN2A-mutated advanced pancreatic cancer): did not have meaningful clinical activity

FOLFIRINOX
Median OS ([2]; FOLFIRINOX versus gemcitabine): 11.1 months

B1: pegilodecakin: agent not efficacious in randomized clinical trials in PDAC (protein, UniProt P22301 19-178, looked up)
Interleukin-10: SPGQGTQSENSCTHFPGNLPNMLRDLRDAFSRVKTFFQMKDQLDNLLLKESLLEDFKGYLGCQALSEMIQFYLEEVMPQAENQDPDIKAHVNSLGENLKTLRLRLRRCHRFLPCENKSKAVEQVKNAFNKLQEKGIYKAMSEFDIFINYIEAYMTMKIRN
modifications: PEGylated
Efficacy in randomized clinical trials [2]: not efficacious

B2: PEGPH20: agent not efficacious in randomized clinical trials in PDAC (protein, UniProt P38567 36-490, looked up)
Hyaluronidase PH-20: LNFRAPPVIPNVPFLWAWNAPSEFCLGKFDEPLDMSLFSFIGSPRINATGQGVTIFYVDRLGYYPYIDSITGVTVNGGIPQKISLQDHLDKAKKDITFYMPVDNLGMAVIDWEEWRPTWARNWKPKDVYKNRSIELVQQQNVQLSLTEATEKAKQEFEKAGKDFLVETIKLGKLLRPNHLWGYYLFPDCYNHHYKKPGYNGSCFNVEIKRNDDLSWLWNESTALYPSIYLNTQQSPVAATLYVRNRVREAIRVSKIPDAKSPLPVFAYTRIVFTDQVLKFLSQDELVYTFGETVALGASGIVIWGTLSIMRSMKSCLLLDNYMETILNPYIINVTLAAKMCSQVLCQEQGVCIRKNWNSSDYLHLNPDNFAIQLEKGGKFTVRGKPTLEDLEQFSEKFYCSCYSTLSCKEKADVKDTDAVDVCIADGVCIDAFLKPPMETEEPQIFYNASPSTLS
modifications: PEGylated; pegvorhyaluronidase alfa
Efficacy in randomized clinical trials [2]: not efficacious
